Legend:
HSV-1 [1] = assay: HSV-1 viral protein synthesis in infected H-ras transformed NIH-3T3 cells, Western blot with rabbit anti-HSV-1 antibody; type: cell-based, HSV-1 (strain F); details: for production of viral proteins / HSV-1 infection / infectivity (summary statement): H-ras transformed NIH-3T3 cells; for production of viral proteins: 22 hours post-infection
Method: (§1) Western blot (Immunoblot) analysisinfected cells were lysed with the single detergent lysis buffer [50 mM Tris (pH 8.0), 150 mM NaCI, 0.02% sodium azide, 100 μg/ml phenylmethy-sulfonyl fluoride, 1 μg/ml aprotinin, and 1% Triton X-100], normalized for the amount of total protein and subjected to SDS-PAGE, followed by electroblotting onto nitrocellulose paper. The membrane was then washed and incubated with the primary antibody [rabbit antibody against all HSV-1 antigens (Dako, CA.; 1:20,000); mouse anti-ICP27 or anti-gC antibody (Rumbaugh-Goodwin Institute, FL; 1:1,000); rabbit anti-ICP8 antibody (from Dr. Paul Olivo, Washington University, St. Louis; 1:1,000); mouse anti-PKR and mouse anti-eIF-2 α antibody (Santa Cruz; 1:1,000); rabbit anti-phospho-PKR and rabbit antiphospho-eIF-2 α antibody (Biosource, CA; 1:1,000) followed by HRP-conjugated secondary antibody (1:2,000). After extensive washing, the blot was exposed to Lumigel detection solution (New England Biolabs) and subjected to autoradiography.
(§2) H-ras transformed NIH-3T3 cells were exposed to the farnesyl transferase inhibitors FTI-1 at a final concentration 50 μM or 100 μM in the culture medium. Control cells were not exposed to inhibitor. At 22 hours post-infection the cells were harvested and Western blot analysis was performed on these samples using rabbit anti-HSV-1 antibody, as described above.
as §2, with “To determine whether other inhibitors of farnesyl transferase would have the same effect on viral protein synthesis, three additional inhibitors were tested. H-ras” for “H-ras”, “FPTI-1, FPTI-2 and FTI-4” for “FTI-1”, “150 μM, 150” for “50”, “or 50” for “100”, “postinfection” for “post-infection”
HSV-1 infected H-ras transformed NIH-3T3 cells were exposed to 40 μM PD98059 in the culture medium. Control cells (HSV-1 infected) were not exposed to PD98059. At 22 hours post-infection, the cells were harvested and Western blot analysis was performed on these samples using rabbit anti-HSV antibody, as described above.
P-13 Kinase Pathway is Not Involved in HSV-1 InfectionH-ras cells that were infected with HSV-1 were exposed to Wortmannin at a final concentration of 200 nM for the entire duration of the infection. Cells were harvested at 22 hr. post infection, lysed and subjected to SDS PAGE followed by immunoblotting with a rabbit anti-HSV-1 antibody.

HSV-1 [2] = assay: HSV-1 virus yield from H-ras transformed cells, plaque titration on Vero cells; type: cell-based; details: MOI 0.5 PFU/cell, harvested 22 hours post infection, inhibitor present for entire infection
HSV-1 [3] = assay: Immunofluorescence of HSV-1-infected A549 cells; type: cell-based; details: 100 μM FTI-1
HSV-1 [4] = assay: HSV-1 viral protein synthesis in PKR+/+ and PKR-/- mouse embryo fibroblasts, Western blot; type: cell-based; details: MOI 0.5 PFU/cell, 20 hr post-infection
Method: The PKR^+/^+ and PKR^−/^− mouse embryo fibroblasts were obtained from Dr. B. R. G. Williams (the Cleveland Clinic Foundation) and were grown in α-MEM containing 10% FBS and antibiotics, as described.
as §1, with “After extensive washing, the blot was exposed to Lumigel detection solution (New England Biolabs) and subjected to autoradiography.” left out
The level of infection by R3616 in PKR^−/^− fibroblasts is equivalent to that seen in cells transformed by Ras, or elements of the Ras pathway. […] Cells were harvested at 20 hr post-infection and analyzed for viral proteins as above. […]

[5] = system: ERK1/2 (Erk42/44) phosphorylation; assay: ERK1/2 phosphorylation in H-ras cells, Western blot; type: cell-based, murine
From the text: (§3) Briefly, subconfluent monolayer cultures were lysed with the recommended SDS-containing sample buffer, the lysate was subjected to SDS-PAGE and electroblotted onto nitrocellulose paper. Blots were probed with anti-ERK1/2 or anti-phospho-ERK1/2 antibodies (for samples treated with FTI-1 or PD98059), anti-ATF-2 or anti-phospho-ATF-2 (for samples treated with SB203580), and anti-Akt and anti-phospho-Akt (for samples treated with Wortmannin). The antibody kits were purchased from New England Biolabs (MA). FTI-1, PD98059, SB203580 and Wortmannin were purchased from Calbiochem (CA).

PKR phosphorylation = PKR phosphorylation in HSV-1 infected H-ras cells, immunoblot with anti-PKR / anti-phospho-PKR; type: cell-based, murine
Method: as §1
H-ras cells were exposed to FTI-1 (100 μM) or PD98059(40 μM) and the phosphorylation state of PKR was assessed using anti-PKR (total PKR) or anti-phospho-PKR (P-PKR) antibodies . […] The difference in phosphorylation of PKR in infected NIH-3T3 cells and in infected MEF cells is shown in the right side of FIG. 10, Panel “B”.

ATF-2 phosphorylation = ATF-2 phosphorylation in H-ras cells, Western blot; type: cell-based, murine; details: SB203580
From the text: as §3

Structure (SMILES) | production of viral proteins (HSV-1 [1]; FTI-1 50 μM or 100 μM in culture medium, vs control without inhibitor) | HSV-1 infection / infectivity (summary statement) (HSV-1 [1]) | virus yield (plaque titration on Vero cells) (HSV-1 [2]) | level of viral proteins detected by immunofluorescence (HSV-1 [3]) | HSV-1 infection (viral protein synthesis) (HSV-1 [4]; PKR+/+ cells) | HSV-1 infection (viral protein synthesis) (HSV-1 [4]; PKR-/- cells) | phosphorylation of ERK1/2 (ERK42/44) ([5]; FTI-1 50 μM or 100 μM) | PKR phosphorylation (PKR phosphorylation; FTI-1 100 μM) | production of viral proteins (HSV-1 [1]; 40 μM PD98059, vs control) | phosphorylation of ERK1/2 (Erk42/44) ([5]; PD98059 40 μM) | PKR phosphorylation (PKR phosphorylation; PD98059 40 μM) | effect on HSV-1 infection (viral proteins, immunoblot) (HSV-1 [1]; SB203580 at effective doses, H-ras transformed cells) | phosphorylation of ATF-2 (ATF-2 phosphorylation)
CSCC[C@H](NC(=O)[C@H](Cc1ccccc1)NC[C@@H](NC[C@@H](N)CS)C(C)C)C(=O)O [FTI-1] | drastically reduced | effectively block HSV-1 infection | dramatically decreased virus yield | dramatically reduces the level of viral proteins detected | inhibited HSV-1 infection | no effect | reduced phosphorylation of ERK1/2 | PKR phosphorylation is restored | – | – | – | – | –
COc1cccc(-c2cc(=O)c3ccccc3o2)c1N [PD98059] | – | partially blocked HSV-1 infection | dramatically decreased virus yield | – | – | – | – | – | reduced | lack of phosphorylation of ERK1/2 | PKR phosphorylation is restored | – | –
C[S+]([O-])c1ccc(-c2nc(-c3ccncc3)c(-c3ccc(F)cc3)[nH]2)cc1 (centres unmarked) [SB203580] | – | neither SB203580 [11] a specific inhibitor of p38 kinase, or Wortmannin [12] a specific inhibitor of P13-kinase, had any measurable effect | does not effect virus yield | – | – | – | – | – | – | – | – | no effect on HSV-1 infection | lack of phosphorylation of ATF-2

Reference: patent US20010049113A1, “Diagnosis and treatment of herpes infections” (priority 2000, published 2001)
